Patent US20220026427A1, “CELL BASED ASSAYS AND KITS FOR ASSESSING SERUM CHOLINERGIC RECEPTOR ACTIVITY” (Centre for Addiction and Mental Health, priority 2017, published 2022)
Structures can show the parent of a compound that is named as a salt.

Columns and labels:
[1] = target: T1, human or rat M1 muscarinic receptors (Rattus norvegicus, UniProt P08482); assay: Ca2+ mobilization (FluoForte) protocol in CHO cells expressing M1 receptors, pre- and post-carbachol phases; assay type: cell-based
T1 construct: host or cells: CHO cells (M1WT3), whole cells
T1 sequence (P08482 1-460): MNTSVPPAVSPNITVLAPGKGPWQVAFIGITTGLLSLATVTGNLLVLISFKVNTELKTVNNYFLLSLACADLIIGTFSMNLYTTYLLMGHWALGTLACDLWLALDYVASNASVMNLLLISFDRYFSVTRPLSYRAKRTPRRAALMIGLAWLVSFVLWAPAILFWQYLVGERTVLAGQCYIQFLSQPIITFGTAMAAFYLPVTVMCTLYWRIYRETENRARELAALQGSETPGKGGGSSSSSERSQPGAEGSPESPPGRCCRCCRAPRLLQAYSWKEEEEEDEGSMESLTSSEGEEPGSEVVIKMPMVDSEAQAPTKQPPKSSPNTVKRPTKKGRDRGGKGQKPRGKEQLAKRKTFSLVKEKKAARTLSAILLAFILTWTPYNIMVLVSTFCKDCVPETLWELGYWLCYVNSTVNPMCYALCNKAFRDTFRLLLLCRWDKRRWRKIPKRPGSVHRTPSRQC

[2] = tested on: cognitively intact healthy participants; conditions: in vivo, iv
Source text: Cambridge Neuropsychological Test Automated Battery (CANTAB-AD):
Two main challenges are often encountered with many of the newer neurocognitive tasks. First is the lack of standardization in administering such tasks. Second is the lack of information on their psychometric properties. The Cambridge Neuropsychological Test Automated Battery (CANTAB) system addresses both of these challenges (www.cambridgecognition.com). The design of the CANTAB is based on well-established neurocognitive experimental paradigms. It was designed initially to provide componential analysis of cognitive functions in the elderly and individuals with dementia. The CANTAB Eclipse consists of 22 tasks that assess neurocognitive processes within a wide range of relatively independent cognitive domains, including visual memory, attention, working memory and problem solving. Each of the tasks is graded, allowing the assessment of patients with varying level of impairment. Increasing the difficulty of a task avoids a ceiling effect. Conversely, decreasing the difficulty of a task avoids a floor effect and allows the distinction between specific and generalized deficits (a concern discussed above). The tasks are automated and therefore testing is given in a standardized manner with a standardized feedback about accuracy and speed. […] Estimates of test-retest reliability and of practice effects are available for many of the CANTAB tasks based on an elderly sample with an age range of 60-80 years. The CANTAB has been used in a variety of clinical populations providing an opportunity to compare findings related to different disorders, including findings examining cognition in late-life bipolar disorder. Finally, the CANTAB tasks are independent of language and culture and can be used in population for whom English is not a primary language^46.
Participants attended the Centre for Addiction and Mental Health on two separate occasions:
Visit 2: Upon arrival at CAMH, participants were administered the CANTAB. An IV line was then set up by a research nurse and the first blood sample was taken. […] The CANTAB was completed once more. […] The qualified investigator or designate was available for the entirety of the study visit.

CN1[C@@H]2CC[C@H]1C[C@@H](OC(=O)C(CO)c1ccccc1)C2 (stereo partly shown) [Atropine, atropine]
effect of the antagonist alone on Ca2+ mobilization [1]: no effect on their own | effect on the agonist response (serum peak) [1]: completely blocked this agonist response

Clc1ccc2c(c1)N=C(N1CCNCC1)c1ccccc1N2 [NDMC, N-desmethylclozapine]
effect on Ca2+ mobilization in the pre-carbachol phase [1]: stronger effects than CLZ | effect on the carbachol response (post-carbachol phase) [1]: virtually eliminated the carbachol response

CN1[C@@H]2C[C@@H](OC(=O)[C@H](CO)c3ccccc3)C[C@H]1[C@@H]1O[C@@H]12 [scopolamine, Scopolamine Hydrobromide]
blc_pc difference score (Big/little circle, Percent correct) [2]: −0.8 | dms_pc difference score (Delayed matching to sample, Percent correct (all delays)) [2]: −19.3 | dms_pcs difference score (Delayed matching to sample, Percent correct (simultaneous)) [2]: 4.4 | dms_pege difference score (Delayed matching to sample, Prob error given error) [2]: 0.1 | pal_tea6 difference score (Paired associated learning, Total errors (6 shapes, adjusted)) [2]: 9.0 | pal_tea difference score (Paired associated learning, Total errors (adjusted)) [2]: 19.1 | rvp_a difference score (Rapid image visual processing, A′) [2]: −0.1 | soc_mitt5 difference score (Stocking of Cambridge, Mean initial thinking time (5 moves)) [2]: −3055.0 | soc_mstt5 difference score (Stocking of Cambridge, Mean subsequent thinking time (5 moves)) [2]: 5139.3 | soc_psimm difference score (Stocking of Cambridge, Problems solved in minimum moves) [2]: −1.7 | swm_be difference score (Spatial working memory, Between errors) [2]: 20.2 | swm_strat difference score (Spatial working memory, Strategy) [2]: 3.1
